Experiment in all cases: biochemical
Experiment [1] deals with H-2 Db (Mus musculus, UniProt P01899). In kind it is binding, murine.
For experiment [2], the target named is HLA-DQ DQA1*0301/B*0301 (DQ7) (Homo sapiens, UniProt P01909+P01920, A209T/C70Q/DUP78-78/E183D/F237L/G63E/I129T/K197E/L178F/L74F/L98V/Q57E/Q76R/S185I/S97I/T49S/V73L). Format: binding.
The target in experiment [3] is HLA-B*0702 (Homo sapiens, UniProt P01889). Format: binding.
Experiment [4] concerns the target HLA-DR DRB1*1101 (DR11) (Homo sapiens, UniProt P01903+P01911, A100R/A169T/A87E/I96F/K41T/L162R/M171V/P40S/Q125H/Q178H/Q39Y/Q99D/R42S/S66Y/T262R/V115G/W38E). Format: binding.
Experiment [5] deals with HLA-DR DRB1*0701 (DR7) (Homo sapiens, UniProt P01903+P01911, A100R/A102G/A103Q/D57E/D86V/E43K/F76Y/K127E/L162R/M171V/P40G/Q125H/Q99D/R33Q/R42Y/R54Q/S133A/S66F/T210M/V115G/Y107V/Y59L/Y89S). In kind it is binding.
For experiment [6], the target named is HLA-DR DRB1*0301 (DR3) (Homo sapiens, UniProt P01903+P01911, A100K/A102G/A103R/A169T/F55Y/I96L/K41T/L162R/M171V/P40S/Q125H/Q178H/Q39Y/R42S/S66N/T106N/T262R/W38E/Y61H). In kind it is binding.
HLA-DR DRB1*0301 (DR3), sequence (P01903 26-254 limits assumed, other chains not shown): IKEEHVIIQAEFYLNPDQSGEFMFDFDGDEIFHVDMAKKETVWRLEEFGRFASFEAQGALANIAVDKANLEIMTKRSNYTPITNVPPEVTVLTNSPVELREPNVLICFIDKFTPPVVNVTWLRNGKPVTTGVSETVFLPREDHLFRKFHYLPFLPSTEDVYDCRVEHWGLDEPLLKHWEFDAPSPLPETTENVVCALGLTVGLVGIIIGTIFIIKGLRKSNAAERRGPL
In experiment [7] the target is HLA-DR DRB1*1501 (DR15) (Homo sapiens, UniProt P01903+P01911). In kind it is binding.
Experiment [8] deals with HLA-DR DRB1*0802 (DR8) (Homo sapiens, UniProt P01903+P01911, A100R/A103L/A169T/F76Y/H45Y/I96F/K41T/L162R/M171V/P40S/Q125H/Q178H/Q39Y/Q99D/R218S/R42G/S66Y/V115G/W38E). In kind it is binding.
The target in experiment [9] is HLA-DR DRB5*0101 (DR51) (Homo sapiens, UniProt P01903+Q30154). In kind it is binding.
For experiment [10], the target named is HLA-DR DRB3*0101 (DR52) (Homo sapiens, UniProt P01903+P79483). In kind it is binding.
Experiment [11] addresses HLA-DR DRB4*0101 (DR53) (Homo sapiens, UniProt P01903+P13762, G164S). In kind it is binding.
Experiment [12] addresses HLA-DR DRB1*0405 (DR4) (Homo sapiens, UniProt P01903+P01911, A100R/A169T/D86S/F76Y/I96L/K127E/L162R/M171V/N62H/P40V/Q125Y/R42H/S133A/S149N/S66Y/V115G/V209L/W38E). In kind it is binding. The conditions noted are these: DRB1 *0405.
The target in experiment [13] is HLA-DR DRB1*0401 (DR4) (Homo sapiens, UniProt P01903+P01911, A100K/A169T/F76Y/I96L/K127E/L162R/M171V/N62H/P40V/Q125Y/R42H/S133A/S149N/S66Y/V115G/V209L/W38E). In kind it is binding. The settings on record: DRB1 *0401.
Experiment [14] concerns the target HLA-DR DRB1*0901 (DR9) (Homo sapiens, UniProt P01903+P01911, A100R/A103E/D57H/D86V/F55Y/F60I/F76Y/I96F/K127E/L162R/M171V/P40D/Q125H/Q99R/R33Q/R42F/S133A/S66N/T210M/V115G/W38K/Y107V/Y59G/Y89S). Format: binding. The settings on record: DRB1 *0901.

Values joined by “and” are separate entries in the source; they are usually repeats but may differ in a detail not shown here. Equal entries are not always repeated. Where two headings read alike, the source gives them in different places. No end group written: not given here.

HLA-DR DRB1*1101 (DR11), sequence (P01903 26-254 limits assumed, other chains not shown): as above
H-2 Db, sequence (P61769 21-119): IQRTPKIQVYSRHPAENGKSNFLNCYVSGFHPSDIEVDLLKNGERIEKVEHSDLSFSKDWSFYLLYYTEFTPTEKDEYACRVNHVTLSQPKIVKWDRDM
H-2 Db, sequence (P01899 25-362): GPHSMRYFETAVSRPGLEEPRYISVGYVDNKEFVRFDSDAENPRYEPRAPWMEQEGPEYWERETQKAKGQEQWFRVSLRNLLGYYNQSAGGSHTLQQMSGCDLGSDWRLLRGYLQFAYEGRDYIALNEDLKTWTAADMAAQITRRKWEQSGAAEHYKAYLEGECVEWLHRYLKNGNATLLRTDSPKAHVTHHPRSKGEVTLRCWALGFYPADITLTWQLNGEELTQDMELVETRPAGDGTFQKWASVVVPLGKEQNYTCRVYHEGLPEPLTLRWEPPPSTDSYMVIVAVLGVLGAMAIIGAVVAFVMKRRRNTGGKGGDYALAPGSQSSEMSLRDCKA

In the case of KVPRNQDWL, the IC50 in [1] (Db) is 38 nM.
TGICNQNII: in [1] (read-out: Db), the IC50 was 21 nM.
As for RNPRFYNL, the IC50 in experiment [1] (Db) was above 44000 nM.
The same measure, in the same setting: then `CC[C@H](C)[C@H](NC(=O)[C@@H](NC(=O)[C@@H](NC(=O)[C@H](Cc1ccccc1)NC(=O)[C@H](C)NC(=O)[C@H](CCCNC(=N)N)NC(=O)CNC(=O)[C@@H]1CCCN1C(=O)CNC(=O)[C@@H](N)CCCNC(=N)N)C(C)C)[C@@H](C)O)C(=O)O`, with 22000 nM.
With SDSNYYDLLKDLEEG, the IC50 in experiment [2] (read-out: DQB1*0301) was above 89300 nM.
Compound KAVYNFATCGI yielded an IC50 in experiment [1] (Db) of 29 nM.
As for XVXDNATEY, the IC50 in [3] (read-out: B*0702 binding affinity (IC50)) is above 55000 nM.
RLIQNFLTI registered an IC50 in [1] (Db) of 40 nM.
As to IDVWLGGLDENFLPY, the IC50 in [2] is above 19200 nM.
For the compound TALANTIEY, the IC50 in experiment [1] (read-out: Db) came to 3.7 nM.
In experiment [3] (B*0702 binding affinity (IC50)), RPRGPGPGV returned an IC50 of 11 nM.
As to IDWDLGGLAENFLPY, the IC50 in experiment [2] (read-out: DQB1*0301) came to 218 nM.
CMANNSHHYI showed an IC50 in [1] (Db) of 220 nM.
As to `CC[C@H](C)[C@H](NC(=O)[C@@H](N)CCCCN)C(=O)N[C@@H](Cc1ccccc1)C(=O)NCC(=O)N[C@@H](CO)C(=O)N[C@@H](CC(C)C)C(=O)N[C@@H](C)C(=O)N[C@@H](Cc1ccccc1)C(=O)N[C@@H](CC(C)C)C(=O)N1CCC[C@H]1C(=O)N[C@@H](CCC(=O)O)C(=O)N[C@@H](CO)C(=O)N[C@@H](Cc1ccccc1)C(=O)N[C@@H](CC(=O)O)C(=O)NCC(=O)N[C@@H](CC(=O)O)C(=O)N1CCC[C@H]1C(=O)N[C@@H](C)C(=O)O`, the IC50 in [4] (DRB1 *1101) was above 52600 nM; in experiment [5] (DRB1 *0701) it was 377 nM; in [6], 74200 nM; in experiment [7] (DRBI *1501), 2260 nM; in experiment [8] it was above 75400 nM; in experiment [9] (DRB5 *0101), 8010 nM. Also, the IC50 in experiment [10] stood at 43700 nM; in [2], 320 nM; in [11] (DRB4 *0101), 10000 nM; in experiment [12] it was 37 nM; in experiment [13], 1200 nM; in experiment [14], 15800 nM.
For the compound (44)YAAAAAAKAAA, the IC50 in experiment [2] (read-out: DQB1*0301) was 26 nM.
The compound `CSCC[C@H](NC(=O)[C@H](C)NC(=O)[C@H](C)NC(=O)[C@H](C)NC(=O)[C@H](C)NC(=O)[C@H](Cc1ccc(O)cc1)NC(=O)[C@H](C)NC(=O)[C@H](C)NC(=O)[C@H](C)NC(=O)[C@H](C)N)C(=O)O` yielded an IC50 in [1] (Db) above 44000 nM.
APAAGPGPGPA had an IC50 in experiment [3] (B*0702 binding affinity (IC50)) of 173 nM.
APRTGPGPGL returned an IC50 in experiment [3] (B*0702 binding affinity (IC50)) of 15 nM.
`CC[C@H](C)[C@H](NC(=O)[C@H](CCC(=O)O)NC(=O)[C@@H]1CCCN1C(=O)[C@@H]1CCCN1C(=O)[C@@H](NC(=O)[C@H](CC(N)=O)NC(=O)[C@H](CO)NC(=O)[C@@H]1CCCN1C(=O)CNC(=O)[C@@H](N)CO)[C@@H](C)O)C(=O)O`: the IC50 in [1] (Db) stood at 8.1 nM.
Compound IDVWLGDLAENFLPY yielded an IC50 in experiment [2] above 44600 nM.
Regarding TALANTIEV, in [1] (read-out: Db), the IC50 amounted to 16 nM.
Turning to AHAAHAAHAAHAAHAA, the IC50 in [4] (DRB1 *1101) is at least 200000 nM; in experiment [5] (DRB1 *0701), above 250000 nM; in experiment [9] (DRB5 *0101), at least 200000 nM; in experiment [2] it was 58 nM; in experiment [13] it was 80000 nM.
For `CC[C@H](C)[C@H](N)C(=O)N[C@H](C(=O)N[C@@H](Cc1ccc(O)cc1)C(=O)N[C@@H](CCCCN)C(=O)N[C@@H](CC(N)=O)C(=O)N[C@@H](CO)C(=O)N[C@H](C(=O)N[C@@H](Cc1c[nH]c2ccccc12)C(=O)N[C@H](C(=O)O)C(C)C)[C@@H](C)O)[C@@H](C)O`, the IC50 in [1] (Db) was 409 nM and 276 nM.
In the case of APGPGPGLL, the IC50 in [3] (B*0702 binding affinity (IC50)) is 299 nM.
In experiment [3] (B*0702 binding affinity (IC50)), VPGPGPGL displayed an IC50 of 1520 nM.
As for STGWNRTIVENLLAN, the IC50 in experiment [2] (read-out: DQB1*0301) was found to be 47100 nM.
As for RPRFGPGPGEF, the IC50 in [3] (B*0702 binding affinity (IC50)) was found to be 14 nM.
With GSDLVEALYLVCGER, in experiment [2], the IC50 is above 89300 nM.
As for APAGPGPGAPA, the IC50 in [3] (B*0702 binding affinity (IC50)) came to 161 nM.
On to YAAFAAAKTAAAFA, for which the IC50 is 2.6 nM in [4] (read-out: DRB1 *1101); 34 nM in experiment [5] (read-out: DRB1 *0701); above 4350 nM in [7] (read-out: DRBI *1501); 9.5 nM in experiment [9] (read-out: DRB5 *0101); 33300 nM in [10] (read-out: DRB3 *0101); 36 nM and 39 nM in experiment [2] (read-out: DQB1*0301). The IC50 in experiment [11] (read-out: DRB4 *0101) worked out at 30 nM.
Compound GMRQNATEI registered an IC50 in [1] (Db) of 81 nM.
The same measure, in the same setting: the same measure for FQPQNGQFI: 6.9 nM and 4.9 nM and 17 nM.

Source of the values: patent US20060079453A1, “Hla binding peptides and their uses” (priority 2002, published 2006).
